pEC50: −log10 of the molar value.
Each compound was assayed against human GLP-1 receptor (Homo sapiens (Human), UniProt P43220). Details: read-out: Mean EC50; cAMP, HTRF detection, 30 min at 37° C., HEK-293 cells expressing cloned human GLP-1 receptor.
human GLP-1 receptor, sequence (P43220 24-463): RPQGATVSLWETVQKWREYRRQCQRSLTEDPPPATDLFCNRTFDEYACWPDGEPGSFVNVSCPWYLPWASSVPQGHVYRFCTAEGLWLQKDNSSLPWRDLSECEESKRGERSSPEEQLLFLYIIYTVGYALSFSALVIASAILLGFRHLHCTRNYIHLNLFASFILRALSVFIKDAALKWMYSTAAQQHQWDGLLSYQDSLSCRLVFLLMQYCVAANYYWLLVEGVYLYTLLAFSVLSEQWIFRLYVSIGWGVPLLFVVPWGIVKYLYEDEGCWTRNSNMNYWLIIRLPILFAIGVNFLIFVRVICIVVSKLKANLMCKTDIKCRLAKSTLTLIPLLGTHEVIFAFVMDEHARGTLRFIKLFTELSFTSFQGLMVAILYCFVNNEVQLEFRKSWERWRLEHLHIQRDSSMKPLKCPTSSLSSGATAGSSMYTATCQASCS
Protocol: Following overnight incubation of cells, media was removed, and compounds (at concentrations ranging from 0.0001 to 100 μM) were added to monolayer cells in Iscove's modified dulbecco's medium (IMDM), 100 μM RO 20-1724 PDE inhibitor, 0.1% BSA, 2% DMSO in a final volume of 100 μL, and incubated for 30 min at 37° C. […] Alternatively, cells were harvested and combined with compounds in suspension using the buffer and protocol described above. cAMP was quantified using a homogenous time-resolved fluorescence detection system (cAMP dynamic, CIS bio International).
For `Cc1cc(Oc2ccc(C[C@H](NC(=O)[C@@H]3Cc4cc5c(cc4CN3C(=O)c3ccccc3)O[C@@H](c3ccc(OCc4ccc(Cl)c(Cl)c4)cc3)CO5)C(=O)O)cc2)ccn1` [Example 177, (S)-2-({(3S,8S)-7-Benzoyl-3-[4-(3,4-dichloro-benzyloxy)-phenyl]-2,3,6,7,8,9-hexahydro-[1,4]dioxino[2,3-g]isoquinoline-8-carbonyl}-amino)-3-[4-(2-methyl-pyridin-4-yloxy)-phenyl]-propionic acid], the pEC50 was 6.82. For `CCC[C@@H](c1ccccc1)N1Cc2cc3c(cc2C[C@H]1C(=O)N[C@@H](Cc1ccc(-c2ccc(C#N)cc2)cc1)C(=O)O)OC[C@H](c1ccc(OCc2ccc(Cl)c(Cl)c2)cc1)O3` [Example 178, (S)-3-(4′-Cyano-biphenyl-4-yl)-2-{[(3S,8S)-3-[4-(3,4-dichloro-benzyloxy)-phenyl]-7-((S)-1-phenyl-butyl)-2,3,6,7,8,9-hexahydro-[1,4]dioxino[2,3-g]isoquinoline-8-carbonyl]-amino}-propionic acid], the pEC50 was 6.51. Work on `CC[C@@H](c1ccccc1)N1Cc2cc3c(cc2C[C@H]1C(=O)N[C@@H](Cc1ccc(-c2ccnc(C)c2C)cc1)C(=O)O)OC[C@H](c1ccc(OCc2ccc(Cl)c(Cl)c2)cc1)O3` [Example 179, (S)-2-{[(3S,8S)-3-[4-(3,4-Dichloro-benzyloxy)-phenyl]-7-((S)-1-phenyl-propyl)-2,3,6,7,8,9-hexahydro-[1,4]dioxino[2,3-g]isoquinoline-8-carbonyl]-amino}-3-[4-(2,3-dimethyl-pyridin-4-yl)-phenyl]-propionic acid] yielded a pEC50 of 8.30. Work on `CC[C@@H](c1ccccc1)N1Cc2cc3c(cc2C[C@H]1C(=O)N[C@@H](Cc1ccc(-c2cc(C)nn2C)cc1)C(=O)O)OC[C@H](c1ccc(OCc2ccc(Cl)c(Cl)c2)cc1)O3` [Example 180, (S)-2-{[(3S,8S)-3-[4-(3,4-Dichloro-benzyloxy)-phenyl]-7-((S)-1-phenyl-propyl)-2,3,6,7,8,9-hexahydro-[1,4]dioxino[2,3-g]isoquinoline-8-carbonyl]-amino}-3-[4-(2,5-dimethyl-2H-pyrazol-3-yl)-phenyl]-propionic acid] yielded a pEC50 of 8.52. Compound `CC[C@@H](c1ccccc1)N1Cc2cc3c(cc2C[C@H]1C(=O)N[C@@H](Cc1ccc(Oc2ccnc(C)c2)cc1)C(=O)O)OC[C@H](c1ccc(OCc2ccc(Cl)c(Cl)c2)cc1)O3` [Example 181, (S)-2-{[(3S,8S)-3-[4-(3,4-Dichloro-benzyloxy)-phenyl]-7-((S)-1-phenyl-propyl)-2,3,6,7,8,9-hexahydro-[1,4]dioxino[2,3-g]isoquinoline-8-carbonyl]-amino}-3-[4-(2-methyl-pyridin-4-yloxy)-phenyl]-propionic acid] has a pEC50 of 7.80. For `CC[C@@H](c1ccccc1)N1Cc2cc3c(cc2C[C@H]1C(=O)N[C@@H](Cc1ccc(-c2ccnc4c2CCC4)cc1)C(=O)O)OC[C@H](c1ccc(OCc2ccc(Cl)c(Cl)c2)cc1)O3` [Example 182, (S)-2-{[(3S,8S)-3-[4-(3,4-Dichloro-benzyloxy)-phenyl]-7-((S)-1-phenyl-propyl)-2,3,6,7,8,9-hexahydro-[1,4]dioxino[2,3-g]isoquinoline-8-carbonyl]-amino}-3-[4-(6,7-dihydro-5H-[1]pyrindin-4-yl)-phenyl]-propionic acid], the pEC50 was 7.54. Compound `CC[C@@H](c1ccccc1)N1Cc2cc3c(cc2C[C@H]1C(=O)N[C@@H](Cc1ccc(Oc2ccncc2)cc1)C(=O)O)OC[C@H](c1ccc(OCc2ccc(Cl)c(Cl)c2)cc1)O3` [Example 184] has a pEC50 of 7.13. With `CC[C@@H](c1ccccc1)N1Cc2cc3c(cc2C[C@H]1C(=O)N[C@@H](Cc1ccc(Oc2cccnc2)cc1)C(=O)O)OC[C@H](c1ccc(OCc2ccc(Cl)c(Cl)c2)cc1)O3` [Example 185, (S)-2-{[(3S,8S)-3-[4-(3,4-Dichloro-benzyloxy)-phenyl]-7-((S)-1-phenyl-propyl)-2,3,6,7,8,9-hexahydro-[1,4]dioxino[2,3-g]isoquinoline-8-carbonyl]-amino}-3-[4-(pyridin-3-yloxy)-phenyl]-propionic acid] the pEC50 was 6.92. `CC[C@@H](c1ccccc1)N1Cc2cc3c(cc2C[C@H]1C(=O)N[C@@H](Cc1ccc(-c2ccnnc2)cc1)C(=O)O)OC[C@H](c1ccc(OCc2ccc(Cl)c(Cl)c2)cc1)O3` [Example 186, (S)-2-{[(3S,8S)-3-[4-(3,4-Dichloro-benzyloxy)-phenyl]-7-((S)-1-phenyl-propyl)-2,3,6,7,8,9-hexahydro-[1,4]dioxino[2,3-g]isoquinoline-8-carbonyl]-amino}-3-(4-pyridazin-4-yl-phenyl)-propionic acid] gave a pEC50 of 6.59. In the case of `CC[C@@H](c1ccccc1)N1Cc2cc3c(cc2C[C@H]1C(=O)N[C@@H](Cc1ccc(-c2cc(C)nc(C)c2)cc1)C(=O)O)OC[C@H](c1ccc(OCc2ccc(Cl)c(Cl)c2)cc1)O3` [Example 188, (S)-2-{[(3S,8S)-3-[4-(3,4-Dichloro-benzyloxy)-phenyl]-7-((S)-1-phenyl-propyl)-2,3,6,7,8,9-hexahydro-[1,4]dioxino[2,3-g]isoquinoline-8-carbonyl]-amino}-3-[4-(2,6-dimethyl-pyridin-4-yl)-phenyl]-propionic acid], the pEC50 was 7.85. `CC[C@@H](c1ccccc1)N1Cc2cc3c(cc2C[C@H]1C(=O)N[C@@H](Cc1ccc(Oc2ccnc(C)c2C)cc1)C(=O)O)OC[C@H](c1ccc(OCc2ccc(Cl)c(Cl)c2)cc1)O3` [Example 189, (S)-2-{[(3S,8S)-3-[4-(3,4-Dichloro-benzyloxy)-phenyl]-7-((S)-1-phenyl-propyl)-2,3,6,7,8,9-hexahydro-[1,4]dioxino[2,3-g]isoquinoline-8-carbonyl]-amino}-3-[4-(2,3-dimethyl-pyridin-4-yloxy)-phenyl]-propionic acid] was tested, and the pEC50 was 7.51. With `CC[C@@H](c1ccccc1)N1Cc2cc3c(cc2C[C@H]1C(=O)N[C@@H](Cc1ccc(-c2cc(C)ncc2C)cc1)C(=O)O)OC[C@H](c1ccc(OCc2ccc(Cl)c(Cl)c2)cc1)O3` [Example 190, (S)-2-{[(3S,8S)-3-[4-(3,4-Dichloro-benzyloxy)-phenyl]-7-((S)-1-phenyl-propyl)-2,3,6,7,8,9-hexahydro-[1,4]dioxino[2,3-g]isoquinoline-8-carbonyl]-amino}-3-[4-(2,5-dimethyl-pyridin-4-yl)-phenyl]-propionic acid] the pEC50 was 7.96. In the case of `CC[C@@H](c1ccccc1)N1Cc2cc3c(cc2C[C@H]1C(=O)N[C@@H](Cc1ccc(-c2ccnn2C)cc1)C(=O)O)OC[C@H](c1ccc(OCc2ccc(Cl)c(Cl)c2)cc1)O3` [Example 191, (S)-2-{[(3S,8S)-3-[4-(3,4-Dichloro-benzyloxy)-phenyl]-7-((S)-1-phenyl-propyl)-2,3,6,7,8,9-hexahydro-[1,4]dioxino[2,3-g]isoquinoline-8-carbonyl]-amino}-3-[4-(2-methyl-2H-pyrazol-3-yl)-phenyl]-propionic acid], the pEC50 was 7.18. Work on `CC[C@@H](c1ccccc1)N1Cc2cc3c(cc2C[C@H]1C(=O)N[C@@H](Cc1ccc(-c2ccnc(O)c2)cc1)C(=O)O)OC[C@H](c1ccc(OCc2ccc(Cl)c(Cl)c2)cc1)O3` [Example 195, (S)-2-{[(3S,8S)-3-[4-(3,4-Dichloro-benzyloxy)-phenyl]-7-((S)-1-phenyl-propyl)-2,3,6,7,8,9-hexahydro-[1,4]dioxino[2,3-g]isoquinoline-8-carbonyl]-amino}-3-[4-(2-hydroxy-pyridin-4-yl)-phenyl]-propionic acid] yielded a pEC50 of 6.86. `CC[C@@H](c1ccccc1)N1Cc2cc3c(cc2C[C@H]1C(=O)N[C@@H](Cc1ccc(-c2ccc(C)nc2)cc1)C(=O)O)OC[C@H](c1ccc(OCc2ccc(Cl)c(Cl)c2)cc1)O3` [Example 196, (S)-2-{[(3S,8S)-3-[4-(3,4-Dichloro-benzyloxy)-phenyl]-7-((S)-1-phenyl-propyl)-2,3,6,7,8,9-hexahydro-[1,4]dioxino[2,3-g]isoquinoline-8-carbonyl]-amino}-3-[4-(6-methyl-pyridin-3-yl)-phenyl]-propionic acid] was tested, and the pEC50 was 6.90. Compound `CC[C@@H](c1ccccc1)N1Cc2cc3c(cc2C[C@H]1C(=O)N[C@@H](Cc1ccc(-c2cnn(C)c2)cc1)C(=O)O)OC[C@H](c1ccc(OCc2ccc(Cl)c(Cl)c2)cc1)O3` [Example 197, (S)-2-{[(3S,8S)-3-[4-(3,4-Dichloro-benzyloxy)-phenyl]-7-((S)-1-phenyl-propyl)-2,3,6,7,8,9-hexahydro-[1,4]dioxino[2,3-g]isoquinoline-8-carbonyl]-amino}-3-[4-(1-methyl-1H-pyrazol-4-yl)-phenyl]-propionic acid] has a pEC50 of 6.58. Compound `CC[C@@H](c1ccccc1)N1Cc2cc3c(cc2C[C@H]1C(=O)N[C@@H](Cc1ccc(-c2ccnc(CO)c2)cc1)C(=O)O)OC[C@H](c1ccc(OCc2ccc(Cl)c(Cl)c2)cc1)O3` [Example 206, (S)-2-{[(3S,8S)-3-[4-(3,4-Dichloro-benzyloxy)-phenyl]-7-((S)-1-phenyl-propyl)-2,3,6,7,8,9-hexahydro-[1,4]dioxino[2,3-g]isoquinoline-8-carbonyl]-amino}-3-[4-(2-hydroxymethyl-pyridin-4-yl)-phenyl]-propionic acid] has a pEC50 of 7.21. For `CC[C@@H](c1ccccc1)N1Cc2cc3c(cc2C[C@H]1C(=O)N[C@@H](Cc1ccc(-c2ccnc(N)c2)cc1)C(=O)O)OC[C@H](c1ccc(OCc2ccc(Cl)c(Cl)c2)cc1)O3` [Example 208, (S)-3-[4-(2-Amino-pyridin-4-yl)-phenyl]-2-{[(3S,8S)-3-[4-(3,4-dichloro-benzyloxy)-phenyl]-7-((S)-1-phenyl-propyl)-2,3,6,7,8,9-hexahydro-[1,4]dioxino[2,3-g]isoquinoline-8-carbonyl]-amino}-propionic acid], the pEC50 was 7.14. Compound `CC[C@@H](c1ccccc1)N1Cc2cc3c(cc2C[C@H]1C(=O)N[C@@H](Cc1ccc(-c2ccnc4ccccc24)cc1)C(=O)O)OC[C@H](c1ccc(OCc2ccc(Cl)c(Cl)c2)cc1)O3` [Example 211, (S)-2-{[(3S,8S)-3-[4-(3,4-Dichloro-benzyloxy)-phenyl]-7-((S)-1-phenyl-propyl)-2,3,6,7,8,9-hexahydro-[1,4]dioxino[2,3-g]isoquinoline-8-carbonyl]-amino}-3-(4-quinolin-4-yl-phenyl)-propionic acid] has a pEC50 of 7.68.

Source: patent US9175003B2, “Substituted azoanthracene derivatives and intermediates for preparation thereof” (TransTech Pharma, LLC, priority 2009, dated 2015)
